{"source": "patent US8609858B2", "about": "“Spiro derivatives of parthenin as novel anticancer agents” (Council of Scientific & Industrial Research, priority 2008, dated 2013)", "key": {"[1]": {"system": "Ehrlich Ascites Carcinoma (EAC)", "experiment": "Anti tumor activity on Ehrlich Ascites Carcinoma (EAC) bearing mice", "type": "in vivo", "details": "for % Tumor growth inhibition / Ascitic fluid volume (ml) Mean ± SE / Tumor cells in ascitic fluid (×10^7) Mean ± SE: nine days, day 12", "source_text": "Non-inbred swiss albino mice from an in-house colony were used in the present study. The breeding and experimental animals were housed in standard size polycarbonate cages providing internationally recommended space for each animal. Animals were fed balanced mice feed supplied by MIs Ashirwad Industries, Chandigarh (India) and autoclaved water was available ad libitum. Animals were cared as per the guide for the care and use of laboratory animals (1996), ILAR, Washington D.C. They were housed in controlled conditions of temperature (23±2° C.), humidity (50-60%) and 12:12 hrs of light: dark cycle. The study and the number of animals used were approved by the institutional animal ethics committee, IIIM, Jammu, India. The study was conducted as per the protocols of National Cancer Institute (NCl), USA (Geran et al., 1972).\nEhrlich Ascites Carcinoma (EAC) was propagated by transplanting 1×10^7 cells from an animal bearing 8-10 days old Ehrlich Ascites Carcinoma, into the peritoneal cavity of non-inbreed swiss mice. For testing, mice of the same sex weighing 20 ±3 g bearing ascites tumor were selected. 1×10^7 cells obtained from an animal bearing 8-10 days old ascites tumor were injected into peritoneal cavity of all animals used for testing (0 Day). On next day animals were randomized and divided into test groups (7 animals in each test group) and one tumor control group (10 animals). Test groups were treated with different doses of Parthenin (10 mg/kg, 25 mg/kg and 50 mg/kg) and its derivative Compound-17 (10 mg/kg, 25 mg/kg and 50 mg/kg, 100 mg/kg and 200 mg/kg) suspension in 1% gum acacia in their respective group intraperitonealy for nine consecutive days. Another test group was administered 5 FU @ 20 mg/kg i.p and served as positive control. The tumor control group was similarly administered normal saline (0.2 ml i.p). The percent tumor growth inhibition were measured on day 12 with respect to volume of ascitic fluid and the number of tumor cells in the ascitic fluid of peritoneal cavity (Geran et al., 1972; Singh et al., 2007).\nThe percent tumor growth inhibition was calculated as follow. % growth inhibition=100×(Average no. of cells in control group−Average no. of cells in test group)/Average no. of cells in control group Results: […]"}, "Hep-2": {"system": "Hep-2", "experiment": "In vitro cytotoxicity screening (sulphodamine B dye), Hep-2", "type": "cell-based", "details": "Homo sapiens, read-out: cell growth inhibition", "procedure": "(§1) Cells at sub confluent stage were harvested from the flask by treatment with trypsin (0.5% in PBS containing 0.02% EDTA) for determination of cytotoxicity. Cells with viability of more than 98%, as determined by trypan blue, were used for assay. The cell suspensions of required cell density were prepared in complete growth medium with gentamycin (50 μg/ml) for determination of cytotoxicity. The cells (100 μl/well) were inoculated in 96 well tissue culture plates. The cells were allowed to grow for 24 hrs temperature of 37° C. and in a humidified atmosphere of 5% CO2 in air. Stock solution of (20 mM) of test material was prepared in DMSO. The stock solution was serially diluted with complete growth medium containing 50 μg/ml of gentamycin to obtain […] working test solutions of 1., 2, 5, 10, 50 and 100 μM. In vitro cytotoxicity (IC50 value) against human cancer cell lines was determined using sulphodamine B dye.^5,6 The results are summarized in table 4.\n(§2) The human Cancer Cell lines were obtained either from National Center for Cell Science, Pune, India or National Cancer Institute, Frederick, U.S.A. The human cancer cell colon: SW-620, prostrate, PC-3, DU-145 and acute lymphoblastic leukemia (MOLT-4) were grown and maintained in RPMI-1640 medium, pH 7.4, HEP-2. […]"}, "PC-3": {"system": "PC-3", "experiment": "In vitro cytotoxicity screening (sulphodamine B dye), PC-3", "type": "cell-based", "details": "Homo sapiens; PC-3 prostate cancer cell line", "procedure": "as §1, with “Cells with viability of more than 98%, as determined by trypan blue, were used for assay.” left out, “μM.” for “μM. In vitro cytotoxicity (IC50 value) against human cancer cell lines was determined using sulphodamine B dye.^5,6 The results are summarized in table 4.”\nThe media were supplemented with FCS (10%), penicillin (100 Units/ml), streptomycin (100 μg/ml) and glutamine (2 mM) and cells were grown in CO2 incubator (Hera cell, Heraeus, USA) at 37° C. with 90% humidity and 5% CO2."}, "human cancer cell lines": {"system": "human cancer cell lines", "experiment": "In vitro cytotoxicity screening, human cancer cell lines in general", "type": "cell-based", "details": "all the cell lines used, read-out: growth inhibition of human cancer cell lines", "procedure": "as §1, §2"}}, "data": [{"smiles": "C[C@H]1CC[C@@H]2[C@@H](OC(=O)C23CC(c2c4ccccc4cc4ccccc24)=NO3)[C@]2(C)C(=O)C=C[C@@]12O", "note": "(stereo partly shown) [Compound -17]", "values": [{"measurement": "% Tumor growth inhibition", "setting": "[1]; 10 mg/kg i.p.", "result": 7.74, "unit": "%"}, {"measurement": "Ascitic fluid volume (ml) Mean ± SE", "setting": "[1]; 10 mg/kg i.p.", "result": "4.07 ± 0.35", "unit": "mL"}, {"measurement": "Tumor cells in ascitic fluid (×10^7) Mean ± SE", "setting": "[1]; 10 mg/kg i.p.", "result": "78.42 ± 2.90 ×10^7"}, {"measurement": "% Tumor growth inhibition", "setting": "[1]; 25 mg/kg i.p.", "result": 19.16, "unit": "%"}, {"measurement": "Ascitic fluid volume (ml) Mean ± SE", "setting": "[1]; 25 mg/kg i.p.", "result": "3.62 ± 0.32", "unit": "mL"}, {"measurement": "Tumor cells in ascitic fluid (×10^7) Mean ± SE", "setting": "[1]; 25 mg/kg i.p.", "result": "68.71 ± 3.16 ×10^7"}, {"measurement": "% Tumor growth inhibition", "setting": "[1]; 50 mg/kg i.p.", "result": 27.23, "unit": "%"}, {"measurement": "Ascitic fluid volume (ml) Mean ± SE", "setting": "[1]; 50 mg/kg i.p.", "result": "2.85 ± 0.37", "unit": "mL"}, {"measurement": "Tumor cells in ascitic fluid (×10^7) Mean ± SE", "setting": "[1]; 50 mg/kg i.p.", "result": "61.85 ± 4.20 ×10^7"}, {"measurement": "% Tumor growth inhibition", "setting": "[1]; 100 mg/kg i.p.", "result": 60.50, "unit": "%"}, {"measurement": "Ascitic fluid volume (ml) Mean ± SE", "setting": "[1]; 100 mg/kg i.p.", "result": "2.07 ± 0.33", "unit": "mL"}, {"measurement": "Tumor cells in ascitic fluid (×10^7) Mean ± SE", "setting": "[1]; 100 mg/kg i.p.", "result": "33.57 ± 2.60 ×10^7"}, {"measurement": "mortality of test animals", "setting": "[1]; 200 mg/kg i.p., EAC bearing mice", "result": "All animals died by 3rd day"}, {"measurement": "inhibition at 5 µM", "setting": "Hep-2", "result": 71, "unit": "%"}, {"measurement": "IC50", "setting": "PC-3", "result": 4.9, "unit": "µM"}, {"measurement": "inhibition at 5 µM", "setting": "human cancer cell lines", "result": "≥ 70", "unit": "%"}]}]}
